Laboratory results reported in US20230131899A1, “INHIBITORS OF MICROBIALLY INDUCED AMYLOID” (Axial Therapeutics, Inc., priority 2020, published 2023).
Read-outs that look alike come from different tables or passages of the source.

System: CsgA gene expression (csgBAC promoter-GFP reporter) in E. coli UTI89
Experiment: In vitro live cell fluorescent reporter assay of CsgA transcription (Reporter Assay)
Type: cell-based
Procedure, shortened: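 Chromosomal single-copy csgBAC promoter–GFP reporter in E. coli UTI89, started at OD600 0.003 in YESCA broth with compound (0.14–100 μM, 1% DMSO), 20 h at 27 °C. GFP (ex 485/em 525 nm) background-subtracted and normalized to vehicle; IC50 and X[50] from curve fits. OD600 tracked growth effects.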

[1] = Escherichia coli, read-out: Reporter Assay Abs IC50 (μM), median Abs IC50 in the CsgA reporter assay, N/A = maximum expression reduction is <50% of control
[2] = Escherichia coli, read-out: Reporter Assay Abs IC50, activity range, class symbol
[3] = Escherichia coli, read-out: Reporter Assay Abs IC50 (activity range), median Abs IC50 in the CsgA reporter assay, class symbol

Compound	IC50 [1] [µM]	IC50 [2] [µM]	IC50 [3] [µM]	IC50 (read-out: Reporter Assay Abs IC50 (activity range), median Abs IC50 in the CsgA reporter assay, class symbol) [µM]	IC50 (read-out: Reporter Assay Abs IC50, median Abs IC50 in the CsgA reporter assay, N/A = maximum expression reduction is <50% of control) [µM]
CCc1c(Cc2cccc3ccccc23)c(-c2cccc(C(F)(F)F)c2)c2n(c1=O)C(C(=O)O)CN2Cc1ccccc1 (stereo not shown) [Compound 140, 1-benzyl-6-ethyl-7-(naphthalen-1-ylmethyl)-5-oxo-8-(3-(trifluoromethyl)phenyl)-1,2,3,5-tetrahydroimidazo[1,2-a]pyridine-3-carboxylic acid]	1	< 1.3	–	–	–
O=C(O)C1CN(Cc2cccc(O)c2)c2c(-c3cccc(C(F)(F)F)c3)c(Cc3cccc4ccccc34)c(Cl)c(=O)n21 (stereo not shown) [Compound 196, 6-chloro-1-(3-hydroxybenzyl)-7-(naphthalen-1-ylmethyl)-5-oxo-8-(3-(trifluoromethyl)phenyl)-1,2,3,5-tetrahydroimidazo[1,2-a]pyridine-3-carboxylic acid]	2.8	1.3 to 4.5	–	–	–
CCCN1CC(C(=O)O)n2c(c(-c3cccc(C(F)(F)F)c3)c(Cc3cccc4ccccc34)c(NC(=O)C(C)C)c2=O)S1(=O)=O (stereo not shown) [Compound 152, 7-isobutyramido-8-(naphthalen-1-ylmethyl)-6-oxo-2-propyl-9-(3-(trifluoromethyl)phenyl)-3,4-dihydro-2H,6H-pyrido[1,2-e][1,2,5]thiadiazine-4-carboxylic acid 1,1-dioxide]	11.4	> 10	–	–	–
CC(C)N1CC(C(=O)O)n2c(c(-c3cccc(C(F)(F)F)c3)c(Cc3cccc4ccccc34)c(C(N)=O)c2=O)S1(=O)=O (stereo not shown) [Compound 175, 7-carbamoyl-2-isopropyl-8-(naphthalen-1-ylmethyl)-6-oxo-9-(3-(trifluoromethyl)phenyl)-3,4-dihydro-2H,6H-pyrido[1,2-e][1,2,5]thiadiazine-4-carboxylic acid 1,1-dioxide]	1.4	1.3 to 4.5	–	–	–
CNC(=O)CCCN1CC(C(=O)O)n2c(c(-c3cccc(C(F)(F)F)c3)c(Cc3cccc4ccccc34)cc2=O)S1(=O)=O (stereo not shown) [Compound 037, 2-(4-(methylamino)-4-oxobutyl)-8-(naphthalen-1-ylmethyl)-6-oxo-9-(3-(trifluoromethyl)phenyl)-3,4-dihydro-2H,6H-pyrido[1,2-e][1,2,5]thiadiazine-4-carboxylic acid 1,1-dioxide]	23.6	–	> 10	–	–
Nc1c(Cc2cccc3ccccc23)c(-c2cccc(C(F)(F)F)c2)c2n(c1=O)C(C(=O)O)CS2 (single isomer, unassigned) [Compound 020b, 6-amino-7-(naphthalen-1-ylmethyl)-5-oxo-8-(3-(trifluoromethyl)phenyl)-2,3-dihydro-5H-thiazolo[3,2-a]pyridine-3-carboxylic acid]	–	–	–	4.6 to 10	5.7
Cn1c(=O)c2c(nc(CCCCCCCN3CC(C(=O)O)n4c(c(-c5cccc(C(F)(F)F)c5)c(Cc5cccc6ccccc56)cc4=O)S3(=O)=O)n2C)n(C)c1=O (stereo not shown) [Compound 047, 8-(naphthalen-1-ylmethyl)-6-oxo-9-(3-(trifluoromethyl)phenyl)-2-(7-(1,3,7-trimethyl-2,6-dioxo-2,3,6,7-tetrahydro-1H-purin-8-yl)heptyl)-3,4-dihydro-2H,6H-pyrido[1,2-e][1,2,5]thiadiazine-4-carboxylic acid 1,1-dioxide]	0.9	–	< 1.3	–	–
CCCN1CC(C(=O)O)n2c(c(-c3cccc(C(F)(F)F)c3)c(Cc3cccc4ccccc34)c(Cl)c2=O)S1(=O)=O (stereo not shown) [Compound 142, 7-chloro-8-(naphthalen-1-ylmethyl)-6-oxo-2-propyl-9-(3-(trifluoromethyl)phenyl)-3,4-dihydro-2H,6H-pyrido[1,2-e][1,2,5]thiadiazine-4-carboxylic acid 1,1-dioxide]	2.3	1.3 to 4.5	–	–	–
O=C(O)C1CN(C[C@H](O)[C@@H](O)[C@H](O)[C@H](O)CO)S(=O)(=O)c2c(-c3cccc(C(F)(F)F)c3)c(Cc3cccc4ccccc34)cc(=O)n21 (mixture of isomers) [Compound 066, 8-(naphthalen-1-ylmethyl)-6-oxo-2-((2S,3R,4R,5R)-2,3,4,5,6-pentahydroxyhexyl)-9-(3-(trifluoromethyl)phenyl)-3,4-dihydro-2H,6H-pyrido[1,2-e][1,2,5]thiadiazine-4-carboxylic acid 1,1-dioxide]	40.2	–	> 10	–	–
O=C(O)C1CN(CCCCCCCN2CC(C(=O)O)n3c2c(-c2cccc(C(F)(F)F)c2)c(Cc2cccc4ccccc24)c(Cl)c3=O)c2c(-c3cccc(C(F)(F)F)c3)c(Cc3cccc4ccccc34)c(Cl)c(=O)n21 (stereo not shown) [Compound 188, 1,1′-(heptane-1,7-diyl)bis(6-chloro-7-(naphthalen-1-ylmethyl)-5-oxo-8-(3-(trifluoromethyl)phenyl)-1,2,3,5-tetrahydroimidazo[1,2-a]pyridine-3-carboxylic acid)]	0.8	< 1.3	–	–	–
O=C(O)C1CN(C[C@@H](O)CO)S(=O)(=O)c2c(-c3cccc(C(F)(F)F)c3)c(Cc3cccc4ccccc34)cc(=O)n21 (mixture of isomers) [Compound 065b, 2-((R)-2,3-dihydroxypropyl)-8-(naphthalen-1-ylmethyl)-6-oxo-9-(3-(trifluoromethyl)phenyl)-3,4-dihydro-2H,6H-pyrido[1,2-e][1,2,5]thiadiazine-4-carboxylic acid 1,1-dioxide]	18.1	–	> 10	–	–
CCCN1CC(C(=O)O)n2c1c(-c1cccc(C(F)(F)F)c1)c(Cc1cccc3ccccc13)c(Cl)c2=O (stereo not shown) [Compound 162, 6-chloro-7-(naphthalen-1-ylmethyl)-5-oxo-1-propyl-8-(3-(trifluoromethyl)phenyl)-1,2,3,5-tetrahydroimidazo[1,2-a]pyridine-3-carboxylic acid]	1.1	< 1.3	–	–	–
CCCN1CC(C(=O)O)n2c(c(-c3cccc(C(F)(F)F)c3)c(C(F)(F)c3cccc4ccccc34)cc2=O)S1(=O)=O (stereo not shown) [Compound 138, 8-(difluoro(naphthalen-1-yl)methyl)-6-oxo-2-propyl-9-(3-(trifluoromethyl)phenyl)-3,4-dihydro-2H,6H-pyrido[1,2-e][1,2,5]thiadiazine-4-carboxylic acid 1,1-dioxide]	2.5	1.3 to 4.5	–	–	–
CCCN1CC(C(=O)O)n2c(c(-c3cccc(C(F)(F)F)c3)c(Cc3cccc4ccccc34)c(C(N)=O)c2=O)S1(=O)=O (stereo not shown) [Compound 172, 7-carbamoyl-8-(naphthalen-1-ylmethyl)-6-oxo-2-propyl-9-(3-(trifluoromethyl)phenyl)-3,4-dihydro-2H,6H-pyrido[1,2-e][1,2,5]thiadiazine-4-carboxylic acid 1,1-dioxide]	4.2	1.3 to 4.5	–	–	–
O=C(O)C1CN(CCCCCO)c2c(-c3cccc(C(F)(F)F)c3)c(Cc3cccc4ccccc34)c(Cl)c(=O)n21 (stereo not shown) [Compound 199, 6-chloro-1-(5-hydroxypentyl)-7-(naphthalen-1-ylmethyl)-5-oxo-8-(3-(trifluoromethyl)phenyl)-1,2,3,5-tetrahydroimidazo[1,2-a]pyridine-3-carboxylic acid]	6.9	4.6 to 10	–	–	–
CNC(=O)C1CN(C)S(=O)(=O)c2c(-c3cccc(C(F)(F)F)c3)c(Cc3cccc4ccccc34)cc(=O)n21 (stereo not shown) [Compound 031, N,2-dimethyl-8-(naphthalen-1-ylmethyl)-6-oxo-9-(3-(trifluoromethyl)phenyl)-3,4-dihydro-2H,6H-pyrido[1,2-e][1,2,5]thiadiazine-4-carboxamide 1,1-dioxide]	4.2	–	1.3 to 4.5	–	–
Cn1c(=O)c2c(ncn2CCCCCN2CC(C(=O)O)n3c(c(-c4cccc(C(F)(F)F)c4)c(Cc4cccc5ccccc45)cc3=O)S2(=O)=O)n(C)c1=O (stereo not shown) [Compound 034, 2-(5-(1,3-dimethyl-2,6-dioxo-1,2,3,6-tetrahydro-7H-purin-7-yl)pentyl)-8-(naphthalen-1-ylmethyl)-6-oxo-9-(3-(trifluoromethyl)phenyl)-3,4-dihydro-2H,6H-pyrido[1,2-e][1,2,5]thiadiazine-4-carboxylic acid 1,1-dioxide]	2.8	–	1.3 to 4.5	–	–
O=C(O)C1CN(Cc2cccnc2)c2c(-c3cccc(C(F)(F)F)c3)c(Cc3cccc4ccccc34)c(Cl)c(=O)n21 (stereo not shown) [Compound 169, 6-chloro-7-(naphthalen-1-ylmethyl)-5-oxo-1-(pyridin-3-ylmethyl)-8-(3-(trifluoromethyl)phenyl)-1,2,3,5-tetrahydroimidazo[1,2-a]pyridine-3-carboxylic acid]	3.8	1.3 to 4.5	–	–	–
O=C(O)c1c(-c2ccccc2)sc2c(-c3cccc(C(F)(F)F)c3)c(Cc3cccc4ccccc34)cc(=O)n12 [Compound 051, 7-(naphthalen-1-ylmethyl)-5-oxo-2-phenyl-8-(3-(trifluoromethyl)phenyl)-5H-thiazolo[3,2-a]pyridine-3-carboxylic acid]	1	–	< 1.3	–	–
CCCCN1CC(C(=O)O)n2c1c(-c1cccc(C(F)(F)F)c1)c(Cc1cccc3ccccc13)c(Cl)c2=O (stereo not shown) [Compound 163, 1-butyl-6-chloro-7-(naphthalen-1-ylmethyl)-5-oxo-8-(3-(trifluoromethyl)phenyl)-1,2,3,5-tetrahydroimidazo[1,2-a]pyridine-3-carboxylic acid]	1.2	< 1.3	–	–	–
